Reference: ChEMBL document CHEMBL4017450, “Synthesis and carbonic anhydrase inhibition of a series of SLC-0111 analogs” (Bioorg Med Chem, 2017)

biological target: Carbonic anhydrase 9 (Homo sapiens, UniProt Q16790)
Description: Inhibition of human recombinant carbonic anhydrase 9 preincubated for 15 mins prior to testing measured for 10 to 100 secs by phenol red-based stopped-flow CO2 hydration assay

| Compound | Ki |
| --- | --- |
| NS(=O)(=O)c1ccc(NC(=O)Nc2ccccc2F)cc1 | 7.7 nM |
| NS(=O)(=O)c1ccc(NC(=O)Nc2cccc(Cl)c2)cc1 | 8.4 nM |
| NS(=O)(=O)c1ccc(NC(=O)Nc2cc(C(F)(F)F)ccc2F)cc1 | 7.4 nM |
| CC(=O)c1ccc(NC(=O)Nc2cccc(S(N)(=O)=O)c2)cc1 | 178 nM |
| NS(=O)(=O)c1ccc(NC(=O)Nc2ccc(Cl)cc2F)cc1 | 5.1 nM |
| NS(=O)(=O)c1ccc(NC(=O)Nc2ccc(F)c(F)c2F)cc1 | 9.6 nM |
| NS(=O)(=O)c1cccc(NC(=O)Nc2ccc(I)cc2)c1 | 116 nM |
| CC(C)c1ccccc1NC(=O)Nc1cccc(S(N)(=O)=O)c1 | 349 nM |
| NS(=O)(=O)c1ccc(NC(=O)Nc2cc(F)c(F)cc2F)cc1 | 7.6 nM |
| NS(=O)(=O)c1cccc(NC(=O)Nc2cccc([N+](=O)[O-])c2)c1 | 154 nM |
| NS(=O)(=O)c1ccc(NC(=O)Nc2ccc(F)cc2F)cc1 | 3.7 nM |
| NS(=O)(=O)c1ccc(NC(=O)Nc2cc([N+](=O)[O-])ccc2Cl)cc1 | 8.2 nM |
| NS(=O)(=O)c1ccc(NC(=O)Nc2cc(Cl)ccc2Cl)cc1 | 8.9 nM |
| NS(=O)(=O)c1cccc(NC(=O)Nc2ccc(F)cc2)c1 | 219 nM |
| NS(=O)(=O)c1cccc(NC(=O)Nc2c(F)c(F)c(F)c(F)c2F)c1 | 162 nM |

biological target: Carbonic anhydrase 12 (Homo sapiens, UniProt O43570); test: Inhibition of human recombinant carbonic anhydrase 12 preincubated for 15 mins prior to testing measured for 10 to 100 secs by phenol red-based stopped-flow CO2 hydration assay
Sequence (O43570 whole entry): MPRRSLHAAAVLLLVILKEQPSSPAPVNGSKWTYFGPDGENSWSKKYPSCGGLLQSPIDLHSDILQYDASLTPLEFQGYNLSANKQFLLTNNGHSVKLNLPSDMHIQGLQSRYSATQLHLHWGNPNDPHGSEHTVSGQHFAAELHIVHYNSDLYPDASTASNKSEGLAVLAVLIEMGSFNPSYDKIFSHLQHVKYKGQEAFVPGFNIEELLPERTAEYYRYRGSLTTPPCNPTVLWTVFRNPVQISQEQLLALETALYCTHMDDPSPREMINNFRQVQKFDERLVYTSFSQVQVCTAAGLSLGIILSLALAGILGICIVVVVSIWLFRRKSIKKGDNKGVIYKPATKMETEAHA

| Compound | Ki |
| --- | --- |
| NS(=O)(=O)c1ccc(NC(=O)Nc2cccc(Cl)c2)cc1 | 8.5 nM |

biological target: Carbonic anhydrase 2 (Homo sapiens, UniProt P00918); test: Inhibition of human recombinant carbonic anhydrase 2 preincubated for 15 mins prior to testing measured for 10 to 100 secs by phenol red-based stopped-flow CO2 hydration assay

| Compound | Ki |
| --- | --- |
| NS(=O)(=O)c1ccc(NC(=O)Nc2cccc(Cl)c2)cc1 | 10 nM |
